Experimental data as given in PubChem BioAssay (NCI).
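Assay format: 96-well plates, 48-hour exposure. TGI denotes the concentration required for complete inhibition of growth.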

How the values were obtained:
Assay in all cases: growth of human tumour cells (NCI), 48 h
M14 melanoma = test system: M14 melanoma
OVCAR-5 ovarian = test system: OVCAR-5 ovarian
NCI-H460 lung = test system: NCI-H460 lung
NCI-H23 lung = test system: NCI-H23 lung
SK-MEL-28 melanoma = test system: SK-MEL-28 melanoma
LOX IMVI melanoma = test system: LOX IMVI melanoma
SK-MEL-2 melanoma = test system: SK-MEL-2 melanoma
MOLT-4 leukemia = test system: MOLT-4 leukemia
MALME-3M melanoma = test system: MALME-3M melanoma
HL-60(TB) leukemia = test system: HL-60(TB) leukemia

Structure (SMILES) | TGI (M14 melanoma) | TGI (OVCAR-5 ovarian) | TGI (NCI-H460 lung) | TGI (NCI-H23 lung) | TGI (SK-MEL-28 melanoma) | TGI (LOX IMVI melanoma) | TGI (SK-MEL-2 melanoma) | TGI (MOLT-4 leukemia) | TGI (MALME-3M melanoma) | TGI (HL-60(TB) leukemia)
C[C@]12CC[C@H]3[C@@H](CCC4=CC(=O)C=C[C@@]43O)[C@@H]1CCC2=O | > 100 µM | > 100 µM | > 100 µM | > 100 µM | > 100 µM | > 100 µM | > 100 µM | > 100 µM | – | –
CO/C(=N\N=C\c1ccc(Cl)cc1)c1ccncc1 | > 100 µM | > 100 µM | > 100 µM | > 100 µM | > 100 µM | – | > 100 µM | > 100 µM | > 100 µM | > 100 µM
CCCCC/C=C1/CC(CO)(COC(=O)CC(C(C)C)C(C)C)OC1=O (stereo not given) | 27.1 µM | 29.7 µM | > 100 µM | 31.7 µM | 26.7 µM | – | 42.9 µM | 26.2 µM | 18.2 µM | –
O=C1C=Cc2c(Cl)sc(Cl)c21 | 3.99 µM | 24.8 µM | 45.2 µM | 5.68 µM | 3.97 µM | 1.89 µM | 5.32 µM | – | – | –
Cc1nc2c(cc1C(=O)NN)c(=O)n(C)c(=O)n2C | > 100 µM | > 100 µM | > 100 µM | > 100 µM | > 100 µM | – | > 100 µM | > 100 µM | – | –
CN(C(=O)C12C3C4(C(=O)O)C1(C(=O)N(C)C(C)(C)C)C1C2(C(=O)O)C3(C(=O)N(C)C(C)(C)C)C14C(=O)N(C)C(C)(C)C)C(C)(C)C (stereo not given) | > 100 µM | > 100 µM | > 100 µM | > 100 µM | > 100 µM | > 100 µM | > 100 µM | > 100 µM | – | > 100 µM
O=C1COC(c2ccccc2O)=NN1CCCN1CCCC1 | > 100 µM | > 100 µM | > 100 µM | > 100 µM | > 100 µM | – | > 100 µM | > 100 µM | > 100 µM | –
NNC(=O)CC(=O)Nc1ccc(Cl)cc1 | – | > 100 µM | > 100 µM | > 100 µM | > 100 µM | > 100 µM | > 100 µM | > 100 µM | > 100 µM | > 100 µM
Cc1c(-c2ccccc2)c(C#N)c2nnn(-c3ccccc3)c(=O)n12 | > 100 µM | > 100 µM | > 100 µM | > 100 µM | > 100 µM | > 100 µM | > 100 µM | – | > 100 µM | > 100 µM
Cc1oc2nc1C(=O)NCc1nc(cs1)C(=O)N[C@H](C(C)C)c1nc(cs1)C(=O)N[C@H]2C | > 100 µM | > 100 µM | > 100 µM | > 100 µM | > 100 µM | – | – | > 100 µM | > 100 µM | –
CC(C)(C)c1cc(C(O)(C(=O)O)C(=O)O)cc(C(C)(C)C)c1O | > 100 µM | > 100 µM | – | > 100 µM | > 100 µM | > 100 µM | > 100 µM | > 100 µM | > 100 µM | > 100 µM
COC(=O)c1c(OC(C)=O)ccc2c1c1c(OC(C)=O)c3ccccc3c(OC(C)=O)c1n2Cc1cc(OC)cc(OC)c1 | > 100 µM | > 100 µM | > 100 µM | > 100 µM | > 100 µM | – | 12.5 µM | > 100 µM | 70.6 µM | > 100 µM
CCCSc1cc(Cl)c(C)cc1S(=O)(=O)n1ccnc1OCCCN(C)C | > 100 µM | > 100 µM | > 100 µM | > 100 µM | > 100 µM | > 100 µM | > 100 µM | > 100 µM | > 100 µM | –
CC1(C)O[C@H](C(=O)O)[C@@H](C(=O)O)O1 | > 100 µM | > 100 µM | > 100 µM | – | > 100 µM | > 100 µM | > 100 µM | > 100 µM | > 100 µM | –
Cc1cccc2c1C(=O)C1(Cc3ccccc3C1=O)C2 (stereo not given) | > 100 µM | > 100 µM | > 100 µM | > 100 µM | > 100 µM | > 100 µM | – | > 100 µM | > 100 µM | > 100 µM
O=c1c2ccccc2oc2c1ccc1ncccc12 | – | 16.1 µM | 17 µM | > 100 µM | > 100 µM | 43.8 µM | > 100 µM | > 100 µM | 52.2 µM | > 100 µM
COC(=O)C1=C(C)N2CCCOC2(C)C(C(=O)OC)C1c1cccc(Cl)c1 (stereo not given) | 74.7 µM | – | 61.3 µM | > 100 µM | > 100 µM | – | 36.6 µM | 45.1 µM | – | 58.4 µM
CCOC(=O)C(=[N+]=[N-])C(=O)C[N+]12CCN(CC1)CC2 | > 100 µM | > 100 µM | > 100 µM | > 100 µM | > 100 µM | > 100 µM | > 100 µM | > 100 µM | > 100 µM | –
